{"source": "patent US12054486B2", "about": "“Pyridine derivatives and their use as sodium channel activators” (Xenon Pharmaceuticals Inc., priority 2021, dated 2024)", "note": "pEC50: −log10 of the molar value. Where a name gives a salt, the structure may show the parent alone."}
{"target": "sodium channel isoforms of interest stably expressed in Human Embryonic Kidney Cells (voltage-gated sodium channel, particularly NaV1.1) (Homo sapiens, UniProt P35498)", "assay": "automated planar patch clamp assay of sodium channel gating (area under the sodium current trace)", "assay_type": "cell-based", "conditions": "HEK cells, voltage step from −120 mV to 0 mV, increasing concentrations", "text": "A typical assay described in Crestey, F. et al., ACS Chem Neurosci (2015), Vol. 6, pp. 1302-1308, AA43279 (Frederiksen, K. et al., Eur J Neurosci (2017), Vol. 46, pp. 1887-1896) and Lu AE98134 (von Schoubyea, N. L. et al., Neurosci Lett (2018), Vol. 662, pp. 29-35) employs the use of automated planar patch clamp techniques to study the effects of the chemical agent on the gating of sodium channels. The sodium channel isoforms of interest are stably expressed in Human Embryonic Kidney Cells and the currents that flow through those channels in response to a depolarizing voltage clamp step from −120 mV to 0 mV are measured in the presence of increasing concentrations of the chemical agents. The area under the sodium current trace which correlates to the magnitude of sodium flux through the cell membrane is used to quantify the effects on gating of the channels. Other parameters that are measured in the assay include the peak current, time constant of open state inactivation and the voltage dependence of steady state inactivation properties. The concentration responses are used to determine potency of each chemical agents effects on modulating the sodium channel isoform gating. Such techniques are known to those skilled in the art, and may be developed, using current technologies, into low or medium throughput assays for evaluating compounds for their ability to modulate sodium channel behaviour.\nAs disclosed above, typical assays for testing compounds of the disclosure are known, for example as disclosed in Crestey, F. et al., ACS Chem Neurosci (2015), Vol. 6, pp. 1302-1308, AA43279 (Frederiksen, K. et al., Eur J Neurosci (2017), Vol. 46, pp. 1887-1896) and Lu AE98134 (von Schoubyea, N. L. et al., Neurosci Lett (2018), Vol. 662, pp. 29-35) which employs the use of automated planar patch clamp techniques to study the effects of the chemical agent on the gating of sodium channels. The sodium channel isoforms of interest are stably expressed in Human Embryonic Kidney Cells and the currents that flow through those channels in response to a depolarizing voltage clamp step from −120 mV to 0 mV are measured in the presence of increasing concentrations of the chemical agents. The area under the sodium current trace which correlates to the magnitude of sodium flux through the cell membrane is used to quantify the effects on gating of the channels. Other parameters that are measured in the assay include the peak current, time constant of open state inactivation and the voltage dependence of steady state inactivation properties. The concentration responses are used to determine potency of each chemical agents effects on modulating the sodium channel isoform gating."}
{"smiles": "Fc1ccc(F)c(-c2ccnc(N3CC[C@H](F)C3)c2-c2nc3cnc(Cl)cc3[nH]2)c1", "note": "[Example 1, (S)-6-chloro-2-(4-(2,5-difluorophenyl)-2-(3-fluoropyrrolidin-1-yl)pyridin-3-yl)-1H-imidazo[4,5-c]pyridine]", "pEC50": "> 6.00", "Empirical Emax": "++++ (++++ indicates a value greater than 7.5)"}
{"smiles": "Fc1ccccc1-c1ccnc(N2CCCC2)c1-c1nc2ncccc2[nH]1", "note": "[Example 2, 2-(4-(2-fluorophenyl)-2-(pyrrolidin-1-yl)pyridine-3-yl)-1H-imidazo[4,5-b]pyridine]", "pEC50": "5.00 to 6.00", "Empirical Emax": "++++ (++++ indicates a value greater than 7.5)"}
{"smiles": "Fc1ccccc1-c1ccnc(N2CCCC2)c1-c1nc2ccccc2[nH]1", "note": "[Example 3, 2-(4-(2-fluorophenyl)-2-(pyrrolidin-1-yl)pyridin-3-yl)-1H-benzo[d]imidazole]", "pEC50": "5.00 to 6.00", "Empirical Emax": "++++ (++++ indicates a value greater than 7.5)"}
{"smiles": "Nc1nnc(-c2c(-c3ccccc3F)ccnc2N2CCCC2)o1", "note": "[Example 4, 5-(4-(2-fluorophenyl)-2-(pyrrolidin-1-yl)pyridin-3-yl)-1,3,4-oxadiazol-2-amine]", "pEC50": "≤ 4.30", "Empirical Emax": "+++ (+++ indicates a value from 5.0 up to 7.5 μM)"}
{"smiles": "CC(C)CC1CN=C(c2c(-c3ccccc3F)ccnc2N2CCCC2)N1", "note": "(stereo not drawn) [Example 5, 4-(2-fluorophenyl)-3-(5-isobutyl-4,5-dihydro-1H-imidazol-2-yl)-2-(pyrrolidin-1-yl)pyridine]", "pEC50": "5.00 to 6.00", "Empirical Emax": "+ (+ indicates a value less than 2.0 μM)"}
{"smiles": "Clc1ccccc1-c1ccnc(N2CCCC2)c1-c1nc2ccccc2[nH]1", "note": "[Example 6, 2-(4-(2-chlorophenyl)-2-(pyrrolidin-1-yl)pyridin-3-yl)-1H-benzo[d]imidazole]", "pEC50": "5.00 to 6.00", "Empirical Emax": "++ (++ indicates a value from 2.0 up to 5.0 μM)"}
{"smiles": "Cc1ccccc1-c1ccnc(N2CCCC2)c1-c1nc2ccccc2[nH]1", "note": "[Example 7, 2-(2-(pyrrolidin-1-yl)-4-(o-tolyl)pyridin-3-yl)-1H-benzo[d]imidazole]", "pEC50": "5.00 to 6.00", "Empirical Emax": "++ (++ indicates a value from 2.0 up to 5.0 μM)"}
{"smiles": "Cc1ccccc1-c1ccnc(N2CCOCC2)c1-c1nc2ccccc2[nH]1", "note": "[Example 8, 4-(3-(1H-benzo[d]imidazol-2-yl)-4-(o-tolyl)pyridin-2-yl)morpholine]", "pEC50": "4.30 to 5.00", "Empirical Emax": "+++ (+++ indicates a value from 5.0 up to 7.5 μM)"}
{"smiles": "Fc1ccccc1-c1ccnc(N2CC[C@H](F)C2)c1-c1nnco1", "note": "[Example 9, (S)-2-(4-(2-fluorophenyl)-2-(3-fluoropyrrolidin-1-yl)pyridin-3-yl)-1,3,4-oxadiazole]", "pEC50": "≤ 4.30", "Empirical Emax": "++ (++ indicates a value from 2.0 up to 5.0 μM)"}
{"smiles": "c1ccc(-c2ccnc(N3CCCC3)c2-c2nc3ccccc3[nH]2)nc1", "note": "[Example 10, 2-(2′-(pyrrolidin-1-yl)-[2,4′-bipyridin]-3′-yl)-1H-benzo[d]imidazole]", "pEC50": "4.30 to 5.00", "Empirical Emax": "++ (++ indicates a value from 2.0 up to 5.0 μM)"}
{"smiles": "Fc1ccccc1-c1ccnc(N2CCCC2)c1-c1nc2ccncc2[nH]1", "note": "[Example 11, 2-(4-(2-fluorophenyl)-2-(pyrrolidin-1-yl)pyridin-3-yl)-3H-imidazo[4,5-c]pyridine Formic Acid Salt]", "pEC50": "5.00 to 6.00", "Empirical Emax": "++++ (++++ indicates a value greater than 7.5)"}
{"smiles": "CCCCNc1nnc(-c2c(-c3ccccc3F)ccnc2N2CC[C@H](F)C2)o1", "note": "[Example 12, (S)—N-butyl-5-(4-(2-fluorophenyl)-2-(3-fluoropyrrolidin-1-yl)pyridin-3-yl)-1,3,4-oxadiazol-2-amine]", "pEC50": "4.30 to 5.00", "Empirical Emax": "++ (++ indicates a value from 2.0 up to 5.0 μM)"}
{"smiles": "CC(C)CCc1nnc(-c2c(-c3ccccc3O)ccnc2N2CC[C@H](F)C2)o1", "note": "[Example 13, (S)-2-(2-(3-fluoropyrrolidin-1-yl)-3-(5-isopentyl-1,3,4-oxadiazol-2-yl)pyridin-4-yl)phenol]", "pEC50": "≤ 4.30", "Empirical Emax": "+ (+ indicates a value less than 2.0 μM)"}
{"smiles": "F[C@H]1CCN(c2nccc(C3=CCCC3)c2-c2nc3ccccc3[nH]2)C1", "note": "[Example 14, (S)-2-(4-(cyclopent-1-en-1-yl)-2-(3-fluoropyrrolidin-1-yl)pyridin-3-yl)-1H-benzo[d]imidazole]", "pEC50": "5.00 to 6.00", "Empirical Emax": "++ (++ indicates a value from 2.0 up to 5.0 μM)"}
{"smiles": "Fc1cccnc1-c1ccnc(N2CCCC2)c1-c1nc2ccccc2[nH]1", "note": "[Example 15, 2-(3-fluoro-2′-(pyrrolidin-1-yl)-[2,4′-bipyridin]-3′-yl)-1H-benzo[d]imidazole]", "pEC50": "4.30 to 5.00", "Empirical Emax": "++++ (++++ indicates a value greater than 7.5)"}
{"smiles": "c1ccc(-c2ccnc(N3CCCC3)c2-c2nc3ccccc3[nH]2)cc1", "note": "[Example 16, 2-(4-phenyl-2-(pyrrolidin-1-yl)pyridin-3-yl)-1H-benzo[d]imidazole]", "pEC50": "5.00 to 6.00", "Empirical Emax": "+++ (+++ indicates a value from 5.0 up to 7.5 μM)"}
{"smiles": "F[C@H]1CCN(c2nccc(-c3ccccc3)c2-c2nc3ccccc3[nH]2)C1", "note": "[Example 17, (S)-2-(2-(3-fluoropyrrolidin-1-yl)-4-phenylpyridin-3-yl)-1H-benzo[d]imidazole]", "pEC50": "5.00 to 6.00", "Empirical Emax": "++++ (++++ indicates a value greater than 7.5)"}
{"smiles": "Fc1ccccc1-c1ccnc(N2CC[C@H](F)C2)c1-c1nc2ccccc2[nH]1", "note": "[Example 18, (S)-2-(4-(2-fluorophenyl)-2-(3-fluoropyrrolidin-1-yl)pyridin-3-yl)-1H-benzo[d]imidazole]", "pEC50": "5.00 to 6.00", "Empirical Emax": "++++ (++++ indicates a value greater than 7.5)"}
{"smiles": "F[C@H]1CCN(c2nccc(-c3ccccc3)c2-c2cc(-c3cccnc3)[nH]n2)C1", "note": "[Example 19, (S)-2-(3-fluoropyrrolidin-1-yl)-4-phenyl-3-(5-(pyridin-3-yl)-1H-pyrazol-3-yl)pyridine]", "pEC50": "4.30 to 5.00", "Empirical Emax": "++ (++ indicates a value from 2.0 up to 5.0 μM)"}
{"smiles": "CC(C)c1ccc(-c2cc(-c3c(-c4ccccc4)ccnc3N3CC[C@H](F)C3)n[nH]2)cc1", "note": "[Example 20, (S)-2-(3-fluoropyrrolidin-1-yl)-3-(5-(4-isopropylphenyl)-1H-pyrazol-3-yl)-4-phenylpyridine]", "pEC50": "4.30 to 5.00", "Empirical Emax": "++ (++ indicates a value from 2.0 up to 5.0 μM)"}
{"smiles": "Fc1cc(F)cc(-c2ccnc(N3CCCC3)c2-c2nc3ccccc3[nH]2)c1", "note": "[Example 23, 2-(4-(3,5-difluorophenyl)-2-(pyrrolidin-1-yl)pyridin-3-yl)-1H-benzo[d]imidazole]", "pEC50": "5.00 to 6.00", "Empirical Emax": "++ (++ indicates a value from 2.0 up to 5.0 μM)"}
{"smiles": "F[C@H]1CCN(c2nccc(-c3ccccc3)c2C2=N[C@@H]3CCCC[C@H]3N2)C1", "note": "[Example 24, (3aR,7aR)-2-(2-((S)-3-fluoropyrrolidin-1-yl)-4-phenylpyridin-3-yl)-3a,4,5,6,7,7a-hexahydro-1H-benzo[d]imidazole]", "pEC50": "5.00 to 6.00", "Empirical Emax": "+ (+ indicates a value less than 2.0 μM)"}
{"smiles": "c1ccc(-c2ccnc(N3CCOCC3)c2C2=N[C@@H]3CCCC[C@H]3N2)cc1", "note": "[Example 25, 4-(3-((3aR,7aR)-3a,4,5,6,7,7a-hexahydro-1H-benzo[d]imidazol-2-yl)-4-phenylpyridin-2-yl)morpholine]", "pEC50": "5.00 to 6.00", "Empirical Emax": "+ (+ indicates a value less than 2.0 μM)"}
{"smiles": "CC1CN=C(c2c(-c3ccccc3)ccnc2N2CC[C@H](F)C2)N1", "note": "(stereo partly drawn) [Example 26, 2-((S)-3-fluoropyrrolidin-1-yl)-3-(5-methyl-4,5-dihydro-1H-imidazol-2-yl)-4-phenylpyridine]", "pEC50": "5.00 to 6.00", "Empirical Emax": "+ (+ indicates a value less than 2.0 μM)"}
{"smiles": "Cc1[nH]c(-c2c(-c3ccccc3)ccnc2N2CC[C@H](F)C2)nc1Br", "note": "[Example 27, (S)-3-(4-bromo-5-methyl-1H-imidazol-2-yl)-2-(3-fluoropyrrolidin-1-yl)-4-phenylpyridine]", "pEC50": "5.00 to 6.00", "Empirical Emax": "++ (++ indicates a value from 2.0 up to 5.0 μM)"}
{"smiles": "c1ccc(-c2cnnc(N3CCCC3)c2-c2nc3ccccc3[nH]2)cc1", "note": "[Example 28, 2-(5-phenyl-3-(pyrrolidin-1-yl)pyridazin-4-yl)-1H-benzo[d]imidazole]", "pEC50": "4.30 to 5.00", "Empirical Emax": "++ (++ indicates a value from 2.0 up to 5.0 μM)"}
{"smiles": "F[C@H]1CCN(c2nccc(-c3ccccc3)c2-c2nc3c([nH]2)CCCC3)C1", "note": "[Example 29, (S)-2-(2-(3-fluoropyrrolidin-1-yl)-4-phenylpyridin-3-yl)-4,5,6,7-tetrahydro-1H-benzo[d]imidazole]", "pEC50": "> 6.00", "Empirical Emax": "++ (++ indicates a value from 2.0 up to 5.0 μM)"}
